Source: US20240197712A1, “TGF-BETA INHIBITION FOR IMMUNODEFICIENCY VIRUS REACTIVATION FROM LATENCY, ENHANCEMENT OF IMMUNODEFICIENCY VIRUS-SPECIFIC RESPONSES AND IMMUNODEFICIENCY VIRUS CURE” (Northwestern University, priority 2022, published 2024)

Tests used:
[1] = test system: ACH-2 cells; experiment: PMA-induced HIV reactivation in ACH-2 cells, intracellular p24 staining; assay type: cell-based
Method: ACH2 cells and U1 cells were obtained through the NIH HIV Reagent Program, Division of AIDS, NIAID, NIH (contributed by Dr. Thomas Folks). […] In the HIV latency reactivation conditions, PMA (Phorbol 12-myristate 13-acetate, SigmaAldrich) was added at 100 ng/ml together with galunisertib or TGF-β1. After 18 hrs, cells were stained intracellularly for p24 using the KC57 antibody (NIH HIV Reagent Program) as previously described (74).

[2] = test system: U1 cells; experiment: DC-driven HIV reactivation from U1 cells (moDC co-culture); assay type: cell-based; settings: moDCs treated with TGF-β1 10 ng/ml for last 2 days, with or without galunisertib; 18 hrs co-culture
Method: CD14^+ cells were isolated from PBMC using the Miltenyi CD14^+ beads. Monocyte-derived DCs (moDCs) were obtained from CD14+ cells cultured in GM-CSF and IL-4 as previously described (55). At day 4 of moDCs differentiation, TGF-β1 (10 ng/ml R&D systems) was added to the moDCs to generate the TGF-β-DCs (or both TGF-β1 and galunisertib). At day 6, 2 days after TGF-1 addition, moDCs were phenotyped (in 3 donors; See Table 2 for antibodies list) and co-cultured with eFluor670 (eBioscience)-labelled U1 at 3:1 U1:DC ratio (5 donors). After 18 hrs of co-culture, cells were stained for p24 intracellularly as described above.

[3] = Galunisertib plasma pharmacokinetics by LCMS; assay type: in vivo, rhesus macaques
Method: Eight naïve macaques (FIG. 9) were used to collect plasma and PBMC for PK/PD studies. 4 macaques received galunisertib (2.5 mg/kg, n=2 or 5 mg/kg, n=2) once and blood was collected at 1 hr, 3 hr and 6 hrs, 24 hrs and 48 hrs. 4 macaques received galunisertib (2.5 mg/kg, n=2 or 5 mg/kg, n=2) twice daily for 9 days and samples were collected 1 hr, 3 hr and 8 hrs after administration on day 1 and on day 9 right before and 1 hr and 3 and 6 hrs after the last administration. Plasma concentrations of galunisertib were measured by IMSERC (Integrated Molecular Structure Education and Research Center) utilizing liquid chromatography mass spectrometry (Shimadzu Kyoto, Japan ultra-high performance liquid chromatography—UHPLC—system and SCIEX Framingham, MA Qtrap 6500+ triple quadrupole mass spectrometer). All standard, quality controls (QC) and experimental samples were prepared and ran in duplicate using 20 μL of plasma (spiked with galunisertib if a standard or QC) adding 15 μL of 8% phosphoric acid solution, 200 μL of acetonitrile (to crash plasma proteins) spiked with tramadol as an internal standard. The standard curve was prepared as a 10-point curve from 1.0 to 1,000 ng/ml with three QCs. […] All samples and standards were processed in duplicate with the average area under the curve (AUC) being used for quantitation reporting. […] The resulting limit of quantitation (LOQ) was 1.0 ng/ml.

[4] = test system: SIVmac251 or SIVmac239; experiment: Plasma viral load, SIV-infected ART-treated macaques, 1-2 weeks galunisertib; assay type: in vivo, rhesus macaques
Method: Rhesus macaques (n=7) were infected with SIVmac251 or SIVmac239 rectally or intravenously (FIG. 9) and ART (Tenofovir [PMPA], Emtricitabine [FTC] and Dolutegravir [DTG]) was initiated between week 12 and 17 post infection. Galunisertib treatment was initiated after 26 or 27 weeks on ART for 7 or 14 days. Galunisertib powder (MedChemExpress—MCE, NJ, USA) was dissolved in water and given orally in a treat twice daily at 5 mg/kg or 10 mg/kg (FIG. 9). Blood viral load was monitored biweekly before and during cART and every 3-4 days during 438 Galunisertib treatment. Colorectal biopsies and LN FNA were collected before and after galunisertib treatment.
(§1) Blood was collected in EDTA tubes and plasma was separated by density gradient centrifugation and used for the determination of plasma VL by SIVgag qRT-PCR at NIRC or at Leidos (Quantitative Molecular Diagnostics Core, AIDS and Cancer Virus Program Frederick National Laboratory). Tissue VL from snap frozen colorectal biopsies and LN FNA were performed at Leidos (A14X004, A14X005 and A14X013) as described in (78) or, for the remaining macaques and from PBMC of all macaques they were performed as described in (77).

[5] = test system: SIVmac251 or SIVmac239; experiment: Tissue cell-associated vRNA/vDNA, colorectal biopsies and LN FNA; assay type: in vivo, rhesus macaques
Method: as §1

[6] = Plasma cytokines and chemokines (MSD 24-plex); assay type: in vivo, rhesus macaques
Method: Cytokines in plasma (at 1:2 dilution) were measured using the NHP Cytokine 24-Plex kit by Meso Scale Diagnostics (MSD) according to manufacturer instructions. Frozen PBMC collected at week 6 post-infection (pre-ART), right before the first galunisertib administration (BC1), at the end of cycle 1 (AC1) and at the end of cycle 3 (AC3) were thawed in AIM V medium (ThermoFisher) with benzonase (Sigma) and plated on a FluoroSpot (CTL) plate pre-activated with 70% Ethanol and IFN-γ, TNF-α and IL-2 capture solution. Gag, pol, and env 15-mer peptides (NIH AIDS Reagents program) were prepared at two times the final concentration of 2.5 μg/ml with co-stimulatory reagents anti-CD28 10 μg/ml and anti-CD49d 10 μg/ml and added to the cells in CTL-Test™ Medium. Parallel positive […] control of PMA (20 ng/ml) and ionomycin (200 ng/mL) or mock DMSO solution was also plated with the stimulatory reagents. PBMCs were added at 300,000 cells per well. After 24 hrs, the plate was washed, and incubated with detection and tertiary solutions and shipped to CTL for scanning and QC.

Question: For `Cc1cccc(-c2nn3c(c2-c2ccnc4ccc(C(N)=O)cc24)CCC3)n1` [galunisertib, Galunisertib], which “frequency of p24-gag+ cells in TGF-β1-treated cultures” value ([1]; ACH-2 cells, TGF-β1 + galunisertib 1 μM) is on record?
Answer: restore frequency of p24-gag+ cells

Question: What about the “frequency of p24-gag+ cells versus PMA-stimulated cultures” value ([1]; ACH-2 cells, galunisertib in absence of exogenous TGF-β1, medium with FBS) of the same molecule?
Answer: increase it above PMA-stimulated cultures

Question: And the “effect on p24+ cells in X-Vivo 15 medium without FBS” value ([1]; control experiments, U1 and ACH-2, no FBS)?
Answer: absent

Question: What about the “frequency of p24-gag+ U1 cells in cocultures with TGF-β1-treated DCs versus untreated DCs” value [2] of the same molecule?
Answer: blocked

Question: What about the “concentration in blood of macaques lower than average concentration in human plasma after similar dosing” value ([3]; macaque vs human plasma) of the same molecule?
Answer: at least 10 fold

Question: And the “PK in rhesus macaques compared with humans” value ([3]; naïve animals, oral 2.5 or 5 mg/kg)?
Answer: substantially lower than in humans

Question: And the “macaques with increase in pVL over 100 copies/ml” value ([4]; 5 or 10 mg/kg orally twice per day, 1 or 2 weeks)?
Answer: 2 of the 7

Question: And the “increase in pVL in macaque not continuously suppressed before treatment” value ([4]; single macaque (A14X))?
Answer: > 2 Log

Question: What about the “ratio CA-RNA/DNA” value ([5]; at least 2 macaques (A14X027 and A14X064)) of the same molecule?
Answer: increased substantially

Question: And the “increase in cell associated vRNA (CA-RNA)” value ([5]; colorectal biopsies and LN FNA, before vs after treatment)?
Answer: 1 to 3 log

Question: And the “concentrations of inflammatory chemokines and cytokines in plasma” value ([6]; before and after first 2 cycles and end of last cycle)?
Answer: no changes

Question: What about the IL-10 in plasma ([6]; end of the last cycle vs before treatment) of the same molecule?
Answer: small increase
